Laboratory results as given in ChEMBL document CHEMBL1142447, “Insights into the mechanism of Na+,K+-ATPase inhibition by 2-methoxy-3,8,9-trihydroxy coumestan” (Bioorg Med Chem, 2008).
Calls of active or inactive are those of the source. The rule behind the calls is not given here.

How the values were obtained:
Rattus norvegicus [1] = organism: Rattus norvegicus; assay: Inhibition of rat kidney Na(+)/K(+) ATPase assessed as enzyme activity at 1 mM after 2 hrs by Fiske and Subbarow method relative to control in presence of 1 mM cysteine; design: scale not given: the % may be the effect or the level left
Rattus norvegicus [2] = organism: Rattus norvegicus; assay: Inhibition of rat kidney Na(+)/K(+) ATPase assessed as enzyme activity at 1 mM after 2 hrs by Fiske and Subbarow method relative to control in presence of 500 uM beta mercaptoethanol; design: scale not given: the % may be the effect or the level left
Rattus norvegicus [3] = organism: Rattus norvegicus; assay: Inhibition of rat kidney Na(+)/K(+) ATPase at 1 mM after 2 hrs by Fiske and Subbarow method in presence of DTT
Rattus norvegicus [4] = organism: Rattus norvegicus; assay: Inhibition of rat kidney Na(+)/K(+) ATPase assessed as enzyme activity at 1 mM after 2 hrs by Fiske and Subbarow method relative to control; design: scale not given: the % may be the effect or the level left
Rattus norvegicus [5] = organism: Rattus norvegicus; assay: Inhibition of rat kidney Ca2+/Mg2+ ATPase assessed after 2 hrs by Fiske and Subbarow method in presence of DTT
[6] = Inhibition of rat kidney Na(+)/K(+) ATPase
[7] = Inhibition of rat gastrocnemius Ca2+/Mg2+ ATPase after 2 hrs; type: tissue-based
[8] = Inhibition of rat stomach H(+)/K(+) ATPase after 2 hrs by Fiske and Subbarow method; type: tissue-based
Rattus norvegicus [9] = organism: Rattus norvegicus; assay: Inhibition of Na(+)/K(+) ATPase in rat kidney assessed as decrease in free sulfydryl groups level at 30 uM after 1 hr by Ellman's method
Rattus norvegicus [10] = organism: Rattus norvegicus; assay: Inhibition of rat kidney Na(+)/K(+) ATPase assessed as enzyme activity preincubated for 30 mins after 2 hrs by Fiske and Subbarow method in presence of beta mercaptoethanol
Rattus norvegicus [11] = organism: Rattus norvegicus; assay: Inhibition of rat kidney Na(+)/K(+) ATPase assessed as enzyme activity at 30 uM after 2 hrs by Fiske and Subbarow method relative to control in presence of 1 mM cysteine; design: scale not given: the % may be the effect or the level left
Rattus norvegicus [12] = organism: Rattus norvegicus; assay: Inhibition of rat kidney Na(+)/K(+) ATPase assessed as enzyme activity at 30 uM after 2 hrs by Fiske and Subbarow method relative to control in presence of 500 uM beta mercaptoethanol; design: scale not given: the % may be the effect or the level left
Rattus norvegicus [13] = organism: Rattus norvegicus; assay: Inhibition of rat kidney Na(+)/K(+) ATPase assessed as enzyme activity at 30 uM after 2 hrs by Fiske and Subbarow method relative to control; design: scale not given: the % may be the effect or the level left
Rattus norvegicus [14] = organism: Rattus norvegicus; assay: Inhibition of rat kidney Na(+)/K(+) ATPase assessed after 2 hrs by Fiske and Subbarow method in presence of DTT

SMILES	Activity (Rattus norvegicus [1]) [%]	Activity (Rattus norvegicus [2]) [%]	Activity (Rattus norvegicus [3])	Activity (Rattus norvegicus [4]) [%]	Activity (Rattus norvegicus [5])	IC50 [6] [µM]	IC50 [7] [µM]	IC50 [8] [µM]	Activity (Rattus norvegicus [9])	Activity (Rattus norvegicus [10])	Activity (Rattus norvegicus [11]) [%]	Activity (Rattus norvegicus [12]) [%]	Activity (Rattus norvegicus [13]) [%]	Activity (Rattus norvegicus [14])
C[C@@H]1O[C@@H](O[C@H]2C[C@@H](O)[C@]3(CO)[C@H]4[C@H](O)C[C@]5(C)[C@@H](C6=CC(=O)OC6)CC[C@]5(O)[C@@H]4CC[C@]3(O)C2)[C@H](O)[C@H](O)[C@H]1O	12	10.5	Active	11.6										
COc1cc2c(cc1O)oc(=O)c1c3cc(O)c(O)cc3oc21					inactive	3	10	30	Active	Active	75.5	81.3	6.9	inactive
